Assay results reported in ChEMBL document CHEMBL4020788, “Synthesis, SAR and molecular docking studies of benzo[d]thiazole-hydrazones as potential antibacterial and antifungal agents” (2017).
Converted amounts (≈) assume the structure as drawn. The source made the active and inactive calls. No cut-off for these calls is given here.

Assays:
Type in all cases: functional
Staphylococcus aureus [1] = test: Antibacterial activity against Staphylococcus aureus at 25 ug/ml after 24 hrs by agar well diffusion method; conditions: read-out: DIZ
Staphylococcus aureus [2] = test: Antibacterial activity against Staphylococcus aureus at 50 ug/ml after 24 hrs by agar well diffusion method; conditions: read-out: DIZ
Staphylococcus aureus [3] = test: Antibacterial activity against Staphylococcus aureus at 75 ug/ml after 24 hrs by agar well diffusion method; conditions: read-out: DIZ
Staphylococcus aureus [4] = test: Antibacterial activity against Staphylococcus aureus at 100 ug/ml after 24 hrs by agar well diffusion method; conditions: read-out: DIZ
Bacillus subtilis [5] = test: Antibacterial activity against Bacillus subtilis at 25 ug/ml after 24 hrs by agar well diffusion method; conditions: read-out: DIZ
Bacillus subtilis [6] = test: Antibacterial activity against Bacillus subtilis at 50 ug/ml after 24 hrs by agar well diffusion method; conditions: read-out: DIZ
Bacillus subtilis [7] = test: Antibacterial activity against Bacillus subtilis at 75 ug/ml after 24 hrs by agar well diffusion method; conditions: read-out: DIZ
Bacillus subtilis [8] = test: Antibacterial activity against Bacillus subtilis at 100 ug/ml after 24 hrs by agar well diffusion method; conditions: read-out: DIZ
Escherichia coli [9] = test: Antibacterial activity against Escherichia coli at 25 ug/ml after 24 hrs by agar well diffusion method; conditions: for zone of inhibition at 25 µg/mL: read-out: DIZ
Escherichia coli [10] = test: Antibacterial activity against Escherichia coli at 50 ug/ml after 24 hrs by agar well diffusion method; conditions: for zone of inhibition at 50 µg/mL: read-out: DIZ
Escherichia coli [11] = test: Antibacterial activity against Escherichia coli at 75 ug/ml after 24 hrs by agar well diffusion method; conditions: for zone of inhibition at 75 µg/mL: read-out: DIZ
Escherichia coli [12] = test: Antibacterial activity against Escherichia coli at 100 ug/ml after 24 hrs by agar well diffusion method; conditions: for zone of inhibition at 100 µg/mL: read-out: DIZ
Klebsiella pneumoniae [13] = test: Antibacterial activity against Klebsiella pneumoniae at 25 ug/ml after 24 hrs by agar well diffusion method; conditions: read-out: DIZ
Klebsiella pneumoniae [14] = test: Antibacterial activity against Klebsiella pneumoniae at 50 ug/ml after 24 hrs by agar well diffusion method; conditions: read-out: DIZ
Klebsiella pneumoniae [15] = test: Antibacterial activity against Klebsiella pneumoniae at 75 ug/ml after 24 hrs by agar well diffusion method; conditions: read-out: DIZ
Klebsiella pneumoniae [16] = test: Antibacterial activity against Klebsiella pneumoniae at 100 ug/ml after 24 hrs by agar well diffusion method; conditions: read-out: DIZ
Staphylococcus aureus [17] = test: Antibacterial activity against methicillin resistant Staphylococcus aureus MRSA090 at 25 ug/ml after 24 hrs by agar well diffusion method; conditions: MRSA090, 24 h, read-out: DIZ
Staphylococcus aureus [18] = test: Antibacterial activity against methicillin resistant Staphylococcus aureus MRSA090 at 50 ug/ml after 24 hrs by agar well diffusion method; conditions: MRSA090, 24 h, read-out: DIZ
Staphylococcus aureus [19] = test: Antibacterial activity against methicillin resistant Staphylococcus aureus MRSA090 at 75 ug/ml after 24 hrs by agar well diffusion method; conditions: MRSA090, 24 h, read-out: DIZ
Staphylococcus aureus [20] = test: Antibacterial activity against methicillin resistant Staphylococcus aureus MRSA090 at 100 ug/ml after 24 hrs by agar well diffusion method; conditions: MRSA090, 24 h, read-out: DIZ
Aspergillus niger [21] = test: Antifungal activity against Aspergillus niger at 25 ug/ml after 48 hrs by agar well diffusion method; conditions: read-out: DIZ
Aspergillus niger [22] = test: Antifungal activity against Aspergillus niger at 50 ug/ml after 48 hrs by agar well diffusion method; conditions: read-out: DIZ
Aspergillus niger [23] = test: Antifungal activity against Aspergillus niger at 75 ug/ml after 48 hrs by agar well diffusion method; conditions: read-out: DIZ
Aspergillus niger [24] = test: Antifungal activity against Aspergillus niger at 100 ug/ml after 48 hrs by agar well diffusion method; conditions: read-out: DIZ
Fusarium verticillioides [25] = test: Antifungal activity against Fusarium moniliforme at 25 ug/ml after 48 hrs by agar well diffusion method; conditions: for zone of inhibition at 25 µg/mL: read-out: DIZ
Fusarium verticillioides [26] = test: Antifungal activity against Fusarium moniliforme at 50 ug/ml after 48 hrs by agar well diffusion method; conditions: for zone of inhibition at 50 µg/mL: read-out: DIZ
Fusarium verticillioides [27] = test: Antifungal activity against Fusarium moniliforme at 75 ug/ml after 48 hrs by agar well diffusion method; conditions: read-out: DIZ
Fusarium verticillioides [28] = test: Antifungal activity against Fusarium moniliforme at 100 ug/ml after 48 hrs by agar well diffusion method; conditions: read-out: DIZ
Fusarium oxysporum [29] = test: Antifungal activity against Fusarium oxysporum at 25 ug/ml after 48 hrs by agar well diffusion method; conditions: for zone of inhibition at 25 µg/mL: read-out: DIZ
Fusarium oxysporum [30] = test: Antifungal activity against Fusarium oxysporum at 50 ug/ml after 48 hrs by agar well diffusion method; conditions: for zone of inhibition at 50 µg/mL: read-out: DIZ
Fusarium oxysporum [31] = test: Antifungal activity against Fusarium oxysporum at 75 ug/ml after 48 hrs by agar well diffusion method; conditions: for zone of inhibition at 75 µg/mL: read-out: DIZ
Fusarium oxysporum [32] = test: Antifungal activity against Fusarium oxysporum at 100 ug/ml after 48 hrs by agar well diffusion method; conditions: read-out: DIZ
Klebsiella pneumoniae [33] = test: Antibacterial activity against Klebsiella pneumoniae incubated for overnight by microdilution method
Staphylococcus aureus [34] = test: Antibacterial activity against Staphylococcus aureus incubated for overnight by microdilution method
Bacillus subtilis [35] = test: Antibacterial activity against Bacillus subtilis incubated for overnight by microdilution method
Escherichia coli [36] = test: Antibacterial activity against Escherichia coli incubated for overnight by microdilution method
Aspergillus niger [37] = test: Antifungal activity against Aspergillus niger after 48 to 72 hrs by microdilution method
Fusarium verticillioides [38] = test: Antifungal activity against Fusarium moniliforme after 48 to 72 hrs by microdilution method
Fusarium oxysporum [39] = test: Antifungal activity against Fusarium oxysporum after 48 to 72 hrs by microdilution method
Staphylococcus aureus [40] = test: Antibacterial activity against methicillin resistant Staphylococcus aureus MRSA090 incubated for overnight by microdilution method

Compound | zone of inhibition at 25 µg/mL (Staphylococcus aureus [1]) [mm] | zone of inhibition at 50 µg/mL (Staphylococcus aureus [2]) [mm] | zone of inhibition at 75 µg/mL (Staphylococcus aureus [3]) [mm] | zone of inhibition at 100 µg/mL (Staphylococcus aureus [4]) [mm] | zone of inhibition at 25 µg/mL (Bacillus subtilis [5]) [mm] | zone of inhibition at 50 µg/mL (Bacillus subtilis [6]) [mm] | zone of inhibition at 75 µg/mL (Bacillus subtilis [7]) [mm] | zone of inhibition at 100 µg/mL (Bacillus subtilis [8]) [mm] | zone of inhibition at 25 µg/mL (Klebsiella pneumoniae [13]) [mm] | zone of inhibition at 50 µg/mL (Klebsiella pneumoniae [14]) [mm] | zone of inhibition at 75 µg/mL (Klebsiella pneumoniae [15]) [mm] | zone of inhibition at 100 µg/mL (Klebsiella pneumoniae [16]) [mm] | zone of inhibition at 25 µg/mL (Staphylococcus aureus [17]) [mm] | zone of inhibition at 50 µg/mL (Staphylococcus aureus [18]) [mm] | zone of inhibition at 75 µg/mL (Staphylococcus aureus [19]) [mm] | zone of inhibition at 100 µg/mL (Staphylococcus aureus [20]) [mm] | zone of inhibition at 25 µg/mL (Aspergillus niger [21]) [mm] | zone of inhibition at 50 µg/mL (Aspergillus niger [22]) [mm] | zone of inhibition at 75 µg/mL (Aspergillus niger [23]) [mm] | zone of inhibition at 100 µg/mL (Aspergillus niger [24]) [mm] | other results
Cc1cccc2nc(N/N=C/c3ccc(Br)cc3Br)sc12 | 11 | 15 | 18 | 21 | 13 | 17 | 24 | 27 | 8 | 11 | 15 | 20 | 8 | 12 | 15 | 17 | 24 | 29 | 36 | 40 | zone of inhibition at 25 µg/mL (Escherichia coli [9]): 5 mm; zone of inhibition at 50 µg/mL (Escherichia coli [10]): 8 mm; zone of inhibition at 75 µg/mL (Escherichia coli [11]): 12 mm; zone of inhibition at 100 µg/mL (Escherichia coli [12]): 16 mm; zone of inhibition at 25 µg/mL (Fusarium verticillioides [25]): 21 mm; zone of inhibition at 50 µg/mL (Fusarium verticillioides [26]): 27 mm; zone of inhibition at 75 µg/mL (Fusarium verticillioides [27]): 32 mm; zone of inhibition at 100 µg/mL (Fusarium verticillioides [28]): 41 mm; zone of inhibition at 25 µg/mL (Fusarium oxysporum [29]): 16 mm; zone of inhibition at 50 µg/mL (Fusarium oxysporum [30]): 24 mm; zone of inhibition at 75 µg/mL (Fusarium oxysporum [31]): 30 mm; zone of inhibition at 100 µg/mL (Fusarium oxysporum [32]): 38 mm; MIC (Klebsiella pneumoniae [33]): 20 µg/mL (≈ 47 µM); MIC (Staphylococcus aureus [34]): 28 µg/mL (≈ 65.9 µM); MIC (Bacillus subtilis [35]): 28 µg/mL (≈ 65.9 µM); MIC (Escherichia coli [36]): 24 µg/mL (≈ 56.5 µM); MIC (Aspergillus niger [37]): 20 µg/mL (≈ 47 µM); MIC (Fusarium verticillioides [38]): 18 µg/mL (≈ 42.3 µM); MIC (Fusarium oxysporum [39]): 16 µg/mL (≈ 37.6 µM)
Cc1cccc2nc(N/N=C/c3ccc(O)cc3O)sc12 | 14 | 18 | 23 | 26 | 12 | 18 | 24 | 28 | 12 | 16 | 21 | 25 | 12 | 16 | 20 | 24 | 8 | 14 | 17 | 21 | zone of inhibition at 25 µg/mL (Escherichia coli [9]): 6 mm; zone of inhibition at 50 µg/mL (Escherichia coli [10]): 12 mm; zone of inhibition at 75 µg/mL (Escherichia coli [11]): 17 mm; zone of inhibition at 100 µg/mL (Escherichia coli [12]): 20 mm; diameter of the inhibition zone (DIZ) (Fusarium verticillioides [25]): inactive; diameter of the inhibition zone (DIZ) (Fusarium verticillioides [26]): inactive; zone of inhibition at 75 µg/mL (Fusarium verticillioides [27]): 10 mm; zone of inhibition at 100 µg/mL (Fusarium verticillioides [28]): 14 mm; diameter of the inhibition zone (DIZ) (Fusarium oxysporum [29]): inactive; diameter of the inhibition zone (DIZ) (Fusarium oxysporum [30]): inactive; diameter of the inhibition zone (DIZ) (Fusarium oxysporum [31]): inactive; zone of inhibition at 100 µg/mL (Fusarium oxysporum [32]): 8 mm; MIC (Klebsiella pneumoniae [33]): 24 µg/mL (≈ 80.2 µM); MIC (Staphylococcus aureus [34]): 24 µg/mL (≈ 80.2 µM); MIC (Bacillus subtilis [35]): 29 µg/mL (≈ 96.9 µM); MIC (Escherichia coli [36]): 33 µg/mL (≈ 110 µM); MIC (Staphylococcus aureus [40]): 20 µg/mL (≈ 66.8 µM); MIC (Fusarium verticillioides [38]): 25 µg/mL (≈ 83.5 µM); MIC (Fusarium oxysporum [39]): 27 µg/mL (≈ 90.2 µM)
Cc1cccc2nc(N/N=C/c3ccc(Cl)cc3Cl)sc12 | 4 | 12 | 16 | 20 | 4 | 9 | 13 | 16 | 10 | 15 | 19 | 22 | 5 | 8 | 13 | 16 | 20 | 24 | 29 | 33 | diameter of the inhibition zone (DIZ) (Escherichia coli [9]): inactive; diameter of the inhibition zone (DIZ) (Escherichia coli [10]): inactive; diameter of the inhibition zone (DIZ) (Escherichia coli [11]): inactive; diameter of the inhibition zone (DIZ) (Escherichia coli [12]): inactive; zone of inhibition at 25 µg/mL (Fusarium verticillioides [25]): 17 mm; zone of inhibition at 50 µg/mL (Fusarium verticillioides [26]): 21 mm; zone of inhibition at 75 µg/mL (Fusarium verticillioides [27]): 28 mm; zone of inhibition at 100 µg/mL (Fusarium verticillioides [28]): 32 mm; zone of inhibition at 25 µg/mL (Fusarium oxysporum [29]): 18 mm; zone of inhibition at 50 µg/mL (Fusarium oxysporum [30]): 22 mm; zone of inhibition at 75 µg/mL (Fusarium oxysporum [31]): 27 mm; zone of inhibition at 100 µg/mL (Fusarium oxysporum [32]): 31 mm; MIC (Aspergillus niger [37]): 25 µg/mL (≈ 74.4 µM); MIC (Fusarium verticillioides [38]): 28 µg/mL (≈ 83.3 µM); MIC (Fusarium oxysporum [39]): 26 µg/mL (≈ 77.3 µM)
